From patent publication EP1213583A1, “General method for the covalent immobilisation of indicators in, or onto a support useful for the fabrication of optical sensors” (Innosense S.r.l., priority 2000, dated 2002)
Like-named read-outs stand apart in the source and are kept apart here.

Experiment: pKa determination from absorbance or reflectance spectra vs. pH (four parameter sigmoid fit)
Format: physicochemical
Conditions: 25°C, 0.9% NaCl
Protocol: Preferred embodiments of the Invention are illustrated by the following examples. In all cases pKa values of the indicators were obtained at 25°C and constant ionic strength (0.9% NaCl, with buffers at 0.01 M). Absorbance or reflectance spectra of the dyed substrates were taken using a Shimadzu UV-VIS-NIR spectrophotometer model 3101PC or an Ocean Optics PC1000 optical fibre spectrophotometer. pKa data were obtained by plotting the function λb-λ850nm/λa-λ850nm vs. pH, where λb is the absorbance or reflectance at the absorption maximum of the basic form of the indicator dye, λa is absorbance or reflectance at the absorption maximum of the acid form of the indicator dye and λ850nm is the absorption or reflectance at 850 nm. The plots were analysed by fitting the data with the four parameter sigmoid function, f = (a - d)/[1 + (x/c)^b] + d, where a is the asymptotic maximum, b is the slope, c is the pH at inflection or pKa and d is the asymptotic minimum. The fitting was performed using the Marquardt-Levenberg nonlinear least-squares method.

[1] = immobilised by Mannich reaction in Biodyne B nylon 6,6 membrane

| SMILES | pKa (immobilised by Mannich reaction in Biodyne A nylon 6,6 membrane) | pKa [1] | pKa (immobilised by Mannich reaction on LoProdyne nylon 6,6 membrane modified with 1,6-diaminohexane) | pKa (indicator in solution, read-out: solution pKa) | solution pKa (indicator in solution) |
| --- | --- | --- | --- | --- | --- |
| O=S1(=O)OC(c2ccc(O)cc2)(c2ccc(O)cc2)c2ccccc21 [phenol red] | 9.64 | 8.68 | 9.86 | 8 |  |
| O=[N+]([O-])c1ccc(N=Nc2c(S(=O)(=O)[O-])cc(O)c3ccc(S(=O)(=O)[O-])cc23)c([N+](=O)[O-])c1.[Na+].[Na+] [nitrazine yellow, 4-(2',4'-dinitrophenylazo)-1-hydroxynaphthalene-3,6-disulfonic acid disodium salt] |  | 5.41 |  |  | 6.60 |
